Columns and labels:
Assay in all cases: Kinase profiling in a biochemical assay panel (mobility shift assays and ELISA), %-inhibition at 1 μM; selectivity entropy
[1] = molecular target: panel of more than 300 wild-type and mutant kinases (313 kinase panel) (Homo sapiens, UniProt Q13554)
[2] = molecular target: panel of more than 300 wild-type and mutant kinases (313 kinase panel) (Homo sapiens, UniProt Q02763); settings: kinase TIE2; 1 μM
[3] = molecular target: T1, panel of more than 300 wild-type and mutant kinases (313 kinase panel) (Homo sapiens, UniProt Q12851); settings: kinase MAP4K2; compound at 1 μM
T1 sequence (Q12851 1-820): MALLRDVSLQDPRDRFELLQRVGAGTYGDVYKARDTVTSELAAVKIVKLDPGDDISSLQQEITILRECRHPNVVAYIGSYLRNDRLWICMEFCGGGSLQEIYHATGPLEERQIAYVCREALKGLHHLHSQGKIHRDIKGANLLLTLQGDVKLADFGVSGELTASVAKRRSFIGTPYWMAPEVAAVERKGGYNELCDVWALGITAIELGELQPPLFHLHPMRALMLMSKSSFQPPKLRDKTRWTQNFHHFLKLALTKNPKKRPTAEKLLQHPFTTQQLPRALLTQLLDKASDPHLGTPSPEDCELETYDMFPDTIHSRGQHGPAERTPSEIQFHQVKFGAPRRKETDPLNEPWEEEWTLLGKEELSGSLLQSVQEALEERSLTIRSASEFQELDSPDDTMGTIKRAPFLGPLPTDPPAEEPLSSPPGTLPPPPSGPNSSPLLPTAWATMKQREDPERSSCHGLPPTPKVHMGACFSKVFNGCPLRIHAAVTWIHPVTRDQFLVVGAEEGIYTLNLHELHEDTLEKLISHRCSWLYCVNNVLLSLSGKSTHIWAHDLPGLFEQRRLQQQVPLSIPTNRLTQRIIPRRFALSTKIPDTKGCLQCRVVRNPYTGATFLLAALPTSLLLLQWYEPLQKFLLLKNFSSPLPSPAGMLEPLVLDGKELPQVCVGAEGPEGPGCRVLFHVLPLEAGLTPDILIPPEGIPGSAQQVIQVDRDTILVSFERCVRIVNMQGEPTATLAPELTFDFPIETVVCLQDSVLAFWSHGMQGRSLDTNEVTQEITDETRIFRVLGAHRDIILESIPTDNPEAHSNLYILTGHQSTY

[4] = molecular target: panel of more than 300 wild-type and mutant kinases (313 kinase panel) (Homo sapiens, UniProt Q9NYA1); settings: kinase SPHK1; 1 μM
[5] = molecular target: panel of more than 300 wild-type and mutant kinases (313 kinase panel) (Homo sapiens, UniProt Q9UQM7)
Sequence of panel of more than 300 wild-type and mutant kinases (313 kinase panel) (Homo sapiens, UniProt Q9UQM7) (Q9UQM7 whole entry, change not shown): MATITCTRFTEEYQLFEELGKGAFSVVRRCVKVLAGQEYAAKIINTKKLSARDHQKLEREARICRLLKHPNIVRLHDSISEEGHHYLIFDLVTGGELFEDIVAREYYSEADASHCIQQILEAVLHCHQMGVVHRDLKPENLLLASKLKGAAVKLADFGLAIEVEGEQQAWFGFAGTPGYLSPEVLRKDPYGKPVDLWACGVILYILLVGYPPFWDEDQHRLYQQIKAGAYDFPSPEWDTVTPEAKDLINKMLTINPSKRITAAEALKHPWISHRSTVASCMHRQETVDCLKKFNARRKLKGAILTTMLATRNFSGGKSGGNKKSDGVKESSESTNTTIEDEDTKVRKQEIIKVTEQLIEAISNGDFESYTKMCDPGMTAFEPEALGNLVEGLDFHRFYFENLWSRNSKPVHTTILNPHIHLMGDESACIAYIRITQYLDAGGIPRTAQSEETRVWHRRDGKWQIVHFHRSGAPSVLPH

[6] = molecular target: panel of more than 300 wild-type and mutant kinases (313 kinase panel) (Homo sapiens, UniProt P49674)
[7] = molecular target: panel of more than 300 wild-type and mutant kinases (313 kinase panel) (Homo sapiens, UniProt Q15349); settings: kinase RSK3; 1 μM
[8] = molecular target: T2, panel of more than 300 wild-type and mutant kinases (313 kinase panel) (Homo sapiens, UniProt P46734); settings: kinase MAP2K3; compound at 1 μM
T2 sequence (P46734 1-347): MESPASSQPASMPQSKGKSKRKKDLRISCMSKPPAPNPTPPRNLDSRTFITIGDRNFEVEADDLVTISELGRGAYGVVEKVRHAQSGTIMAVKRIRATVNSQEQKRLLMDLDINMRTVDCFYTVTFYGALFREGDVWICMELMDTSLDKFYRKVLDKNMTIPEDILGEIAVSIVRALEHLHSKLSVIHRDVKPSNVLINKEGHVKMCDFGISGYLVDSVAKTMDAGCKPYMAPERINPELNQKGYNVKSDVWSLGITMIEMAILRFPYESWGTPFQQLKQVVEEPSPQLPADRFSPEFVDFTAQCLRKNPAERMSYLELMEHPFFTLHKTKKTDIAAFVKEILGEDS

[9] = molecular target: T3, panel of more than 300 wild-type and mutant kinases (313 kinase panel) (Homo sapiens, UniProt Q05513); settings: kinase PKCζ; 1 μM
T3 sequence (Q05513 1-592): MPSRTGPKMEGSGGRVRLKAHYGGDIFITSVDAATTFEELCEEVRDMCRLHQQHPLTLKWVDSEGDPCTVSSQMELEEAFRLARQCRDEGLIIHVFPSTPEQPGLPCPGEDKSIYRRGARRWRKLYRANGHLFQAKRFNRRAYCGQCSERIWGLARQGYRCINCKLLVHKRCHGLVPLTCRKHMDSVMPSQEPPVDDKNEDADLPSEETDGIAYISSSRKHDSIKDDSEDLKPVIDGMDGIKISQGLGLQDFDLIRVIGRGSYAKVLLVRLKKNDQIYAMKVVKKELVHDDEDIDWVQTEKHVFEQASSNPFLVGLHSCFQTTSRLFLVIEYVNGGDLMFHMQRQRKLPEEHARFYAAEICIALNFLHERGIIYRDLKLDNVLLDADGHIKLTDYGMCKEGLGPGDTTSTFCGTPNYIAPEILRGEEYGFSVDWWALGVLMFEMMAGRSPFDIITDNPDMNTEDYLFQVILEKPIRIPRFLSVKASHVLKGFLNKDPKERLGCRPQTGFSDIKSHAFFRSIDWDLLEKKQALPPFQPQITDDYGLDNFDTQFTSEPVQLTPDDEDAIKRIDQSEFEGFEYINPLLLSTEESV

Sequence of panel of more than 300 wild-type and mutant kinases (313 kinase panel) (Homo sapiens, UniProt Q13554) (Q13554 whole entry, change not shown): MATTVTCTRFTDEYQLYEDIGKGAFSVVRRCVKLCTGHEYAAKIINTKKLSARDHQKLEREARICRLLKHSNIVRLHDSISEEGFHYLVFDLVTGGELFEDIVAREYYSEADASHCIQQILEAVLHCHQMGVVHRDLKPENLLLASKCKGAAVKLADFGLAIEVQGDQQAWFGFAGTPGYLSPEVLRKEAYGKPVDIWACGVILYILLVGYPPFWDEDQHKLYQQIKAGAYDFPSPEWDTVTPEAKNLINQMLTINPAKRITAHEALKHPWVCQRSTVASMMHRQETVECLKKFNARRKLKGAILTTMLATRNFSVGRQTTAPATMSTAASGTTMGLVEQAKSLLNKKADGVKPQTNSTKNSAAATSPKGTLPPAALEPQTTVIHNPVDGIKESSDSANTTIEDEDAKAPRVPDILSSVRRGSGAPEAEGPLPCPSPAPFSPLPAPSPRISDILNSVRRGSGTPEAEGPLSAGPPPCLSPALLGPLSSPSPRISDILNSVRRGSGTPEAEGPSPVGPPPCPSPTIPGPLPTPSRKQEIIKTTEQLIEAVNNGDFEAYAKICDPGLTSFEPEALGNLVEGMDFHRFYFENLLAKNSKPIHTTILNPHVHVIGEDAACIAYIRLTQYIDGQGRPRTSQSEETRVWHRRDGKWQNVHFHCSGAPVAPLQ
Sequence of panel of more than 300 wild-type and mutant kinases (313 kinase panel) (Homo sapiens, UniProt Q02763) (Q02763 23-1124, change not shown): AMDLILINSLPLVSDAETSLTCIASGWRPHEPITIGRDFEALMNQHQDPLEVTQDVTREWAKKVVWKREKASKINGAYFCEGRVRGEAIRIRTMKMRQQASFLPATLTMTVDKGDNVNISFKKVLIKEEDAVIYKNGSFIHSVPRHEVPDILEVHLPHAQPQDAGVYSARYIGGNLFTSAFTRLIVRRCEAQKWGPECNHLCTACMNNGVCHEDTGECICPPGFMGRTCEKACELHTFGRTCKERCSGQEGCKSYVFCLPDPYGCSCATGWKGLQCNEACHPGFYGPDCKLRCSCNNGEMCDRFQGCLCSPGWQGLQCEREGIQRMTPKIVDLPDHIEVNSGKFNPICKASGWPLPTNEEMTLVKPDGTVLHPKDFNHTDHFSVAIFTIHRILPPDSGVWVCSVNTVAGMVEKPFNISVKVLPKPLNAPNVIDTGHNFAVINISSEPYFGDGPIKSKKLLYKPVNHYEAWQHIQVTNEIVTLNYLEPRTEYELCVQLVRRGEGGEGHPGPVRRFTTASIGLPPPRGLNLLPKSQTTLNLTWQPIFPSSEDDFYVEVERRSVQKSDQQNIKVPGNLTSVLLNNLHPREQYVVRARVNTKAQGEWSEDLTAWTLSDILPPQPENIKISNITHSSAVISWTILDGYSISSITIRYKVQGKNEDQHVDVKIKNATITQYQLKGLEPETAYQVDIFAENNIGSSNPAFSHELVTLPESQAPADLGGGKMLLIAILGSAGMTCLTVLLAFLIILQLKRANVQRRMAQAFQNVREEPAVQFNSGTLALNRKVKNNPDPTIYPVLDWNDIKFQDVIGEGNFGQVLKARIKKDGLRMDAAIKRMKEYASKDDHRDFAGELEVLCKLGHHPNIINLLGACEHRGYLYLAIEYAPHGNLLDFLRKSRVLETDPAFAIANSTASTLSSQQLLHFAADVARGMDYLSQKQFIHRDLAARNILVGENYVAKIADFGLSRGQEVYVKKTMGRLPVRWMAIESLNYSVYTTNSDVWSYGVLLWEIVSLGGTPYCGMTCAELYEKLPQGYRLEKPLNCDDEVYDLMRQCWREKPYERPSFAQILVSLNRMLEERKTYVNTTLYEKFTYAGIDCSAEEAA

SMILES | %-inhibition, CaMK2β ([1]; 1 µM) | %-inhibition of TIE2 [2] | %-inhibition of MAP4K2 [3] | %-inhibition of SPHK1 [4] | %-inhibition, CaMK2α ([5]; 1 µM) | %-inhibition, CK1ε ([6]; kinase CK1ε, 1 μM compound) | %-inhibition of RSK3 [7] | %-inhibition of MAP2K3 [8] | %-inhibition of PKCζ [9] | %-inhibition, CaMK2β ([1]; kinase CaMK2β, 1 μM compound) | %-inhibition, CaMK2α ([5]; kinase CaMK2α, 1 μM compound) | %-inhibition, CK1ε ([6]; 1 µM)
N#CC[C@H](C1CCCC1)n1cc(-c2ncnc3[nH]ccc23)cn1 [ruxolitinib] | 22% | 3% | 7% | -15% | 42% | 7.39% | 9% | 27% | -9% | – | – | –
CC(=O)Nc1cccc(-n2c(=O)n(C3CC3)c(=O)c3c(Nc4ccc(I)cc4F)n(C)c(=O)c(C)c32)c1 [trametinib] | – | -7% | 4% | -11% | – | -5.38% | -5% | 3% | 4.31% | 0.738% | -1.65% | –
CS(=O)(=O)CCNCc1ccc(-c2ccc3ncnc(Nc4ccc(OCc5cccc(F)c5)c(Cl)c4)c3c2)o1 [lapatinib] | -5% | 2.14% | 11% | -11% | -4.56% | – | 5.43% | 13% | 0% | – | – | 1.64%
CO[C@H]1C[C@@H]2CC[C@@H](C)[C@@](O)(O2)C(=O)C(=O)N2CCCC[C@H]2C(=O)O[C@H]([C@H](C)C[C@@H]2CC[C@@H](OCCO)[C@H](OC)C2)CC(=O)[C@H](C)/C=C(\C)[C@@H](O)[C@@H](OC)C(=O)[C@H](C)C[C@H](C)/C=C/C=C/C=C/1C [everolimus] | – | -3.66% | -7% | -16% | – | -6.43% | -9% | 10% | 5% | -10% | -8% | –
CNC(=O)c1cc(Oc2ccc(NC(=O)Nc3ccc(Cl)c(C(F)(F)F)c3)c(F)c2)ccn1 [regorafenib] | – | 47% | 46% | -14% | – | -6% | 45% | 90% | 5% | -9% | -1.57% | –
Cc1cn(-c2cc(NC(=O)c3ccc(C)c(Nc4nccc(-c5cccnc5)n4)c3)cc(C(F)(F)F)c2)cn1 [nilotinib] | -21% | 41% | 3.24% | 11% | – | 0.595% | 11% | 94% | 5.32% | – | -5% | –
Cc1ccc(Nc2nccc(N(C)c3ccc4c(C)n(C)nc4c3)n2)cc1S(N)(=O)=O [pazopanib] | – | 26% | 71% | 1.19% | – | 0% | 7% | 47% | -0.674% | -2.29% | -0.797% | –
COc1cc2nccc(Oc3ccc(NC(=O)C4(C(=O)Nc5ccc(F)cc5)CC4)cc3)c2cc1OC [cabozantinib] | – | 90% | 35% | -12% | – | 3.28% | 0.355% | 72% | 4% | -4% | -8% | –

Reference: article PMC3961306, “Comparison of the Cancer Gene Targeting and Biochemical Selectivities of All Targeted Kinase Inhibitors Approved for Clinical Use” (PLoS ONE, 2014)
